Reference: patent publication US8957087B2, “Heterocyclic substituted acardite derivate and application thereof” (Jiangsu Provincial Institute of Materia Medica Co., Ltd., priority 2009, dated 2015)
Read-outs that look alike come from different tables or passages of the source.

What was measured:
[1] = test system: human lung cancer cell strain A549; experiment: MTT assay, inhibition of growth of human lung cancer cell strain A549; assay type: cell-based
Summary of the method: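 A549 cells grown in F12 with 10% FBS; growth read by MTT, inhibition rate from blank-corrected OD of drug wells versus control wells.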

[2] = test system: human umbilical vein endothelial cell HUVEC; experiment: Lumen formation ability of HUVEC (Matrigel method); assay type: cell-based; conditions: Final concentration 1 x 1.0*10^(−5) mol/L
Summary of the method: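 HUVEC at passage 3–5, cultured in M199 at 37° C under 5% CO2, were plated on Matrigel with compound. Spontaneous lumen formation was scored as an inhibition rate.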

[3] = test system: human umbilical vein endothelial cell HUVEC; experiment: Growth of human umbilical vein endothelial cell HUVEC by CCK8 method; assay type: cell-based; conditions: Final concentration 1 x 1.0*10^(−5) mol/L
Summary of the method: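 HUVEC cells were grown in 1640 medium with 10% FBS, and growth was measured by the CCK8 method. OD values of drug and control wells were corrected by subtracting the blank-well OD.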

Raf-1(truncated) = experiment: Raf-1 inhibitor screening by chemoluminescence method; assay type: biochemical; conditions: Final concentration 1 x 1.0*10^−5 mol/ml
Text: 1. Inhibitory activity of the compound of the present invention on raf kinase
Raf-1 inhibitor screening by chemoluminescence method
Westernblot electrophoresis apparatus Rotaryshaker
Raf-1(truncated), Magnesium/ATP Cocktail, MEK1 unactive

[4] = test system: human liver cancer cell bel-7402 transplantation tumor; assay type: in vivo; conditions: 60 mg/kg, 6 times every week for 3 weeks; for Relative tumor reproduction rate T/C (%) on human liver cancer cell bel-7402 transplantation tumor model in nude mice: BALB/cA nude mice, Sorafenib oral 60 mg/kg
Summary of the method: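 Female BALB/cA nude mice (35–40 days, 18–22 g) bearing Bel-7402 xenografts; 6 mice per treated group, 12 in saline controls. Compound dosed at 60 mg/kg, 6 times weekly for 3 weeks, followed by one week of observation; tumor inhibition rate scored against controls.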

mice S180 sarcoma = experiment: Experimental therapeutic action on S180 sarcoma mice; conditions: for Tumor growth inhibition rate (%): mice S180 sarcoma, 60 mg/kg orally for 9 days
[5] = test system: renal carcinoma cell line GCR-1 transplanted tumor; assay type: in vivo, BALB/cA nude mice; conditions: 60 mg/kg, 6 times every week for 3 weeks; for Relative tumor reproduction rate T/C (%) on human renal carcinoma GCR-1 cell transplanted tumor model in nude mice: BALB/cA nude mice, Sorafenib oral 60 mg/kg
Summary of the method: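 Female BALB/cA nude mice (18–22 g) bearing GCR-1 renal carcinoma xenografts, 6 per treated group, 12 saline controls. Drug given at 60 mg/kg, 6 times weekly for 3 weeks, then one week of observation; tumor inhibition rate reported.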

[6] = test system: human lung cancer A549 transplantation tumor; assay type: in vivo; conditions: 60 mg/kg, 6 times every week for 3 weeks; for Relative tumor reproduction rate T/C (%) on human lung cancer A549 transplantation tumor in nude mice: BALB/cA nude mice, Sorafenib oral 60 mg/kg
Summary of the method: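 Female BALB/cA nude mice, 35-40 days old, bearing A549 human lung cancer transplants; 6 per treatment group, 12 saline controls. Compound given at 60 mg/kg, 6 times weekly for 3 weeks, then observed one week.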

[7] = test system: Human colon cancer HT-29 transplantable tumor; experiment: Human colon cancer HT-29 transplantable tumor in nude mice; conditions: for Relative tumor reproduction rate T/C (%): HT-29 in nude mice
Method: Experimental therapeutic action of the compound in the present invention on Human colon cancer HT-29 transplantable tumor in nude mice.
Take eugenic tumor tissues and cut into about 1.5 mm^3, and then incoculate subcutaneously at the right armpit of nude mice under the sterile conditions. The diameter of the transplantable tumor in nude mice was determined with a vernier caliper, and the animals were divided into groups after the tumors were grown to 100-300 mm^3. Using the method of measuring the tumor diameter, dynamically observe the antitumor effects of tested materials. The diameter of the tumor was determined three times every week and the mouse weight was weighed at the same time. […] The solvent was intragastrically administrated as the control for continuous 9 times. Equal amount of control was administrated in the negative control group.
Tumor volume (TV) is calculated as: TV=½×a×b^2, wherein a and b respectively represent length and width.
Relative tumor volume (RTV) is calculated as: RTV=TVt/TV0, wherein TV0 is the tumor volume when administrated according to different cages and TVt is the tumor volume measured each time.
Relative tumor reproduction rate T/C (%) is calculated as follows:
TRTV: RTV in the treatment group; CRTV: RTV in the negative control group.
The test results used relative tumor reproduction rate T/C (%) as evaluating indicator of anti-tumor activity.

[8] = test system: human high-metastic lung cancer cell 95D; experiment: Inhibition of human high-metastic lung cancer cell 95D migration (Boyden Chamber Transwell); assay type: cell-based; conditions: Final concentration 1 x 1.0*10^(−5) mol/L
Summary of the method: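 Boyden Transwell migration (8 μm pores) of 95D cells, RPMI-1640 with 10% FBS versus serum-free medium; inhibition rate calculated.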

lung cancer cell A549 = experiment: Effects on the adhesive ability of lung cancer cell A549; assay type: cell-based, human; conditions: Final concentration 1 x 1.0*10^(−5) mol/L
Summary of the method: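 A549 cells in 1640 medium with 10% FBS tested for adhesion to gelatin versus poly-lysine (PLL), with CCK8 used as read-out. Inhibition rate derived from the gelatin/PLL adhesion OD ratio of dosed cells relative to the undosed cell group.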

SMILES	Inhibition rate, growth of human lung cancer cell A549 [1]	Inhibition rate, lumen formation ability of HUVEC [2]	Inhibition rate, growth of HUVEC cell [3]	Inhibition rate % on raf kinase (Raf-1(truncated))	Relative tumor reproduction rate T/C (%) on human liver cancer cell bel-7402 transplantation tumor model in nude mice [4]	Tumor growth inhibition rate (%) (mice S180 sarcoma)	Relative tumor reproduction rate T/C (%) on human renal carcinoma GCR-1 cell transplanted tumor model in nude mice [5]	Relative tumor reproduction rate T/C (%) on human lung cancer A549 transplantation tumor in nude mice [6]	Relative tumor reproduction rate T/C (%) ([7]; 60 mg/kg ig 9 times)	Inhibition rate, 95D cell strain migration [8]	Inhibition rate, adhesion ability of human lung cancer cell A549 (lung cancer cell A549)	other results
COc1ncncc1Oc1ccc(NC(=O)Nc2ccc(Cl)c(C(F)(F)F)c2)cc1 [Compound 22, N-(4-chloro-3-(trifluoromethyl)phenyl)-N′-(4-(5-(4-methoxypyrimidinyl)oxy)phenyl)urea]	82.49%	86.72%	12.49%	88.1%	15.3%	52.1%	8.1%	15.3%	41.2%	88.77%	72.44%	–
CNC(=O)c1cc(Oc2ccc(NC(=O)Nc3ccc(Cl)c(C(F)(F)F)c3)cc2)ccn1 [Sorafenib, reference compound]	54.60%	55.60%	22.61%	85.7%	–	–	–	–	–	62.32%	72.66%	Mortality of the animals [4]: no mortality; Tumor weight x ± SD (mice S180 sarcoma; 60 mg/kg ig for 9 days, day 10): 0.71 ± 0.30 g; Tumor growth inhibition rate (%) (mice S180 sarcoma; 60 mg/kg): 55.9%; Tumor growth inhibition rate (%) (mice S180 sarcoma; listed as Sora, 60 mg/kg): 55.9%; Mortality of the animals [5]: no mortality; Mortality of the animals [6]: no mortality; Weight (g) d0 ([7]; nude mouse body weight d0, 60 mg/kg): 19.9 ± 1.1 g; Weight (g) d13 ([7]; nude mouse body weight d13, 60 mg/kg ig 9 times): 20.4 ± 1.4 g; RTV ([7]; relative tumor volume, 60 mg/kg ig 9 times): 2.36 ± 0.57; TV d0 ([7]; tumor volume d0, 60 mg/kg): 133 ± 33; TV d13 ([7]; tumor volume d13, 60 mg/kg ig 9 times): 308 ± 86
COc1ncncc1Oc1ccc(NC(=O)Nc2ccc(F)c(C(F)(F)F)c2)cc1 [Compound 23, N-(4-fluoro-3-(trifluoromethyl)phenyl)-N′-(4-(5-(4-methoxypyrimidinyl)oxy)phenyl)urea]	55.41%	97.56%	17.41%	89.9%	17.7%	51.5%	9.1%	17.1%	39.7%	85.53%	77.56%	–
CCc1ccc(NC(=O)Nc2ccc(Oc3ccnc4cc(F)c(C)cc34)cc2)cc1C(F)(F)F [Compound 34, N-(4-ethyl-3-(trifluoromethyl)phenyl)-N′-(4-(4-(6-methyl-7-fluoro-quinolinyl)oxy)phenyl)urea]	59.52%	66.52%	19.52%	96.2%	31.5%	52.6%	36.1%	22.3%	45.9%	63.65%	76.54%	–
CNC(=O)c1ncc(Oc2ccc(NC(=O)Nc3ccc(Br)c(C(F)(F)F)c3)cc2)c2ccc(N)cc12 [Compound 12, N-(4-bromo-3-(trifluoromethyl)phenyl)-N′-(4-(2-(N-methylaminoformoxyl)-4-(7-amino-isoquinolyl)oxy)phenyl)urea]	–	52.37%	12.31%	12.1%	31.6%	45.7%	20.5%	36.3%	80.5%	66.79%	62.30%	Inhibition rate, growth of human lung cancer cell A549 ([1]; Final concentration 1 x 1.0*10^(−5) mol/L): 42.31%
CCNC(=O)c1cc(Oc2ccc(NC(=O)Nc3ccc(Cl)c(OC)c3)c(C)c2)c2ccc([N+](=O)[O-])cc2n1 [Compound 35, N-(4-chloro-3-methoxyphenyl)-N′-(2-methyl-4-(2-(N-ethylcarbamyl)-4-(7-nitryl-quinolinyl)oxy)phenyl)urea]	55.74%	65.70%	5.74%	45.3%	34.5%	55.8%	32.3%	23.6%	51.2%	68.47%	75.72%	–
CCCNC(=O)c1cc(Oc2ccc(NC(=O)Nc3ccc(Cl)c(OC)c3)c(F)c2)c2ccc(C(F)(F)F)cc2n1 [Compound 37]	71.65%	71.72%	19.65%	81.5%	36.3%	24.1%	32.3%	38.3%	39.5%	79.25%	71.74%	–
O=C(Nc1ccc(Oc2ncnc3cc(F)ccc23)cc1)Nc1ccc(Cl)c(C(F)(F)F)c1 [Compound 19, N-(4-chloro-3-(trifluoromethyl)phenyl)-N′-(4-(4-(7 fluoroquinazolinyl)oxy)phenyl)urea]	91.23%	89.22%	5.23%	93.5%	16.3%	50.8%	13.2%	7.7%	39.4%	90.21%	90.28%	–
